From PubChem BioAssay AID192 (DTP/NCI, 2004)
Where “and” joins values, the source holds several entries; their conditions need not be identical. Equal values may be shown once. Toxic doses and inconclusive results are not listed. The calls were made as follows: active = survival T/C of 150% or more; inactive = T/C below 125% in these data.

Test system: BDF1 mice, B16 melanoma ip, median survival T/C
Experiment: NCI In Vivo Anticancer Drug Screen. Data for tumor model B16 Melanoma (intraperitoneal) in B6D2F1 (BDF1) mice
Conditions: endpoint: median survival time, higher = longer survival
Procedure: The antitumor activity of compounds was measured in mice bearing transplantable tumors. Survival or tumor size were measured and the results are expressed as the measurement made in the treated group (T) divided by the measurement made in the vehicle treated control group (C). The tumor model used in this assay is B16 Melanoma (intraperitoneal) in B6D2F1 (BDF1) mice

[1] = dose: 12.5 mg/kg/injection, schedule: Q01DX009 (ip), vehicle: Klucel (hydroxypropylcellulose) (HPC)
[2] = dose: 25.0 mg/kg/injection, schedule: Q01DX009 (ip), vehicle: Klucel (hydroxypropylcellulose) (HPC)
[3] = dose: 50.0 mg/kg/injection, schedule: Q01DX009 (ip), vehicle: Klucel (hydroxypropylcellulose) (HPC)
[4] = dose: 100.0 mg/kg/injection, schedule: Q01DX009 (ip), vehicle: Klucel (hydroxypropylcellulose) (HPC)
[5] = dose: 200.0 mg/kg/injection, schedule: Q01DX009 (ip), vehicle: Klucel (hydroxypropylcellulose) (HPC)
[6] = dose: 25.0 mg/kg/injection, schedule: Q01DX009 (ip), vehicle: saline with Tween-80
[7] = dose: 50.0 mg/kg/injection, schedule: Q01DX009 (ip), vehicle: saline with Tween-80
[8] = dose: 100.0 mg/kg/injection, schedule: Q01DX009 (ip), vehicle: saline with Tween-80
[9] = dose: 12.5 mg/kg/injection, schedule: Q01DX009 (ip), vehicle: saline
[10] = dose: 25.0 mg/kg/injection, schedule: Q01DX009 (ip), vehicle: saline
[11] = dose: 6.25 mg/kg/injection, schedule: Q01DX009 (ip), vehicle: saline

Measured: T/C

O=C1N(Cl)C(=O)C(c2ccc(Cl)cc2)(c2ccc(Cl)cc2)N1Cl
inactive: dose: 1.56 mg/kg/injection, schedule: Q01DX009 (ip), vehicle: Klucel (hydroxypropylcellulose) (HPC) 104 % of control | dose: 3.12 mg/kg/injection, schedule: Q01DX009 (ip), vehicle: Klucel (hydroxypropylcellulose) (HPC) 96 % of control | dose: 6.25 mg/kg/injection, schedule: Q01DX009 (ip), vehicle: Klucel (hydroxypropylcellulose) (HPC) 104 % of control | [1] 104 % of control | [2] 114 % of control and 101 % of control | dose: 25.0 mg/kg/injection, schedule: Q02DX009 (ip), vehicle: Klucel (hydroxypropylcellulose) (HPC) 103 % of control | [3] 112 % of control | dose: 50.0 mg/kg/injection, schedule: Q02DX009 (ip), vehicle: Klucel (hydroxypropylcellulose) (HPC) 99 % of control | [4] 118 % of control | dose: 100.0 mg/kg/injection, schedule: Q02DX009 (ip), vehicle: Klucel (hydroxypropylcellulose) (HPC) 106 % of control | [5] 117 % of control | dose: 200.0 mg/kg/injection, schedule: Q02DX009 (ip), vehicle: Klucel (hydroxypropylcellulose) (HPC) 96 % of control | dose: 400.0 mg/kg/injection, schedule: Q01DX009 (ip), vehicle: Klucel (hydroxypropylcellulose) (HPC) 118 % of control

CC(C)(C)c1ccc(C(=O)C2CC2)cc1
inactive: [6] 94 % of control | [7] 99 % of control | [8] 95 % of control

C[N+](C)(C)CCCC1C2CCC(C2)C1C[N+](C)(C)C (centres undefined)
inactive: [9] 110 % of control | [10] 110 % of control

CCCCCCCCCC(=O)CCCC
inactive: dose: 100.0 mg/kg/injection, schedule: Q01DX009 (ip), vehicle: other 94 % of control | dose: 200.0 mg/kg/injection, schedule: Q01DX009 (ip), vehicle: other 92 % of control

O=c1[nH]c2c(ccc3cnccc32)c2c1CCC2
inactive: dose: 3.12 mg/kg/injection, schedule: Q01DX009 (ip), vehicle: suspension in saline 97 % of control | dose: 6.25 mg/kg/injection, schedule: Q01DX009 (ip), vehicle: suspension in saline 104 % of control

CC(=O)OCCN1CC1
inactive: dose: 3.12 mg/kg/injection, schedule: Q01DX009 (ip), vehicle: saline 109 % of control | [11] 103 % of control | [9] 100 % of control | [10] 95 % of control

CC(=O)Nc1ccc2c(c1)Cc1cc(NC=O)ccc1-2
inactive: dose: 0.75 mg/kg/injection, schedule: Q01DX009 (ip), vehicle: Klucel (hydroxypropylcellulose) (HPC) 88 % of control | dose: 1.5 mg/kg/injection, schedule: Q01DX009 (ip), vehicle: Klucel (hydroxypropylcellulose) (HPC) 93 % of control | dose: 3.0 mg/kg/injection, schedule: Q01DX009 (ip), vehicle: Klucel (hydroxypropylcellulose) (HPC) 90 % of control

O=Cc1c(O)c2ccccc2[nH]c1=O
inactive: [6] 106 % of control and 120 % of control | [7] 102 % of control and 107 % of control | [8] 122 % of control

CC1=C2CC(C)(C)/C=C\C(=O)/C(C)=C\C3=C[C@H](C)C[C@]3(O2)C1=O
inactive: dose: 1.5 mg/kg/injection, schedule: Q01DX009 (ip), vehicle: saline 93 % of control | dose: 3.0 mg/kg/injection, schedule: Q01DX009 (ip), vehicle: saline 100 % of control | dose: 6.0 mg/kg/injection, schedule: Q01DX009 (ip), vehicle: saline 100 % of control | dose: 12.0 mg/kg/injection, schedule: Q01DX009 (ip), vehicle: saline 106 % of control | dose: 16.0 mg/kg/injection, schedule: Q01DX009 (ip), vehicle: saline with Tween-80 97 % of control | dose: 32.0 mg/kg/injection, schedule: Q01DX009 (ip), vehicle: saline with Tween-80 92 % of control

CCN(CC)Cc1ncccc1O
inactive: [3] 107 % of control | [4] 103 % of control

CC12CC(C(=O)O)C3(O)CC(C)(C1)CC(C)(C2)C3 (centres undefined) (tested in a mixture with another compound)
inactive: [1] 97 % of control and 101 % of control | [2] 93 % of control and 107 % of control | [3] 94 % of control and 96 % of control | [4] 96 % of control and 103 % of control | [5] 94 % of control and 98 % of control

[Cl][Pd]([Cl])([Cl])[Cl]
inactive: [11] 103 % of control | [9] 92 % of control

CCCCCC(=O)c1ccc(OCCCN2CCN(C(=O)OCC)CC2)cc1
inactive: [8] 98 % of control | dose: 200.0 mg/kg/injection, schedule: Q01DX009 (ip), vehicle: saline with Tween-80 87 % of control
